Laboratory results reported in patent publication US20060025419A1, “Imidazoquinoxaline compound for the treatment of melanoma” (priority 2004, published 2006).
Peptide text beside a SMILES is read from it. * marks the point of attachment. Cbz = O=C(OCc1ccccc1)*; CH2F = FC*

Columns and labels:
SK-Mel-5 cells [1] = test: Nuclear apoptosis (DNA fragmentation) by flow cytometry; type: cell-based, human; details: 50 μM, 48 h, p<0.05
Method: FIGS. 4A-4H. […] Paraffin-embedded tumor tissues were subjected to H&E staining (FIGS. 4C & D) and DeadEnd Fluorometric TUNEL-assay for detection of apoptosis (FIGS. 4E & F). The TUNEL-positive cells are visualized in green fluorescence in a red (Propidium Iodide) background by fluorescence microscopy. […] After 36 h incubation, cells were collected and fixed with 1% formaldehyde and 70% ice-cold ethanol. The apoptotic cells were examined using TUNEL-assay and analyzed by flow cytometry through measuring fluorescein-12-dUTP at 520 nm. The apoptotic rate is indicated in each box. Data shown are represented one of three independent experiments. […] Cells were fixed and stained with Propidium iodide. Cell fluorescence was measured by flow cytometry and the data were analyzed using DNA content histogram deconvolution software (Multicycle from Phoenix Flow Systems). The percentage of apoptotic cells with fragmented DNA (PI intensity sub-G0/G1) is indicated at each time point. The experiments were repeated twice, in duplicates for each point (total n=4).

SK-Mel-5 cells [2] = test: Western blot / confocal analysis of apoptotic proteins in subcellular fractions; type: cell-based, human; details: 50 μM with 10 μM BMS-345541, Western blot and confocal microscopy
Method: Subcellular mitochondria and cytoplasm were prepared and subjected to Western blot analysis for Bcl-2 and Bax. […] After exposure, mitochondria were isolated and incubated with 80 μM 3,3′dihexyloxacarbocyanine iodide (DiOC6) at 37° C. for 15 min. Δψm was determined by FACS analysis using 484/530 nm filters within 10 min while gating the forward and sideward scatters on intact mitochondria (FIG. 5C). […] Subcellular extracts were prepared and subjected to Western blot analysis for cytochrome-C and AIF. […] The supernatant was assessed for cytochrome-c release. 200 μM Ca^2+ was used as a positive control.
The cellular caspase-3 activity in samples was detected as described in Materials and Methods. […] Cells were fixed and stained with propidium iodide staining as described in FIG. 4H. The percentage of cell death was measured with flow cytometry. […] Cytosol was extracted and subjected to Western blot analysis for AIF, cytochrome-c (cyto-C) and actin. Actin was used as a loading control protein. […] Ref-1 was used as a nuclear marker protein. All data shown here were from three independent experiments. […] SK-Mel-5 cells were exposed to 10 μM BMS and/or pan-caspase inhibitor (Z-VAD-fmk, 50 μM).
Proteins from cell extracts were separated by 12% SDS-PAGE and electrophoretically transferred to nitrocellulose membranes. Nonspecific binding was blocked with 5% milk in TBST buffer (4 mM Tris base, 100 mM NaCl, pH 7.5, 0.05% Tween), incubated with the indicated primary antibodies with a dilution of 1:1000 at room temperature for 2 h or 4° C. for overnight and then with horseradish peroxidase-conjugated secondary antibody for 1 h. Blots were visualized by enhanced chemiluminescence assay.
The Mitochondria Isolation Kit (Pierce, Rockford, Ill.) was used for isolation of mitochondria from cultured melanoma cells according to the manufacture's instruction for the Reagent-based method. Briefly, cells (2×10^7) were collected, washed with PBS buffer and resuspended in 0.8 ml of Reagent A on ice for 2 min. 10 μl of Reagent B was added and samples were kept on ice, with vortexing very minute for 5 min. After addition of 0.8 ml of Reagent C, the mixture was centrifuged at 700×g for 10 min to remove the cell debris and nuclei. The supernatant was then centrifuged at 3,000×g for 15 min. The pellet (mitochondria) was washed with Reagent C. The purity of mitochondria was determined by Western blotting with β-actin, where β-actin negative preparation were fully to be pure. The supernatant (cytosolic fraction) was further cleared by centrifugation at 12,000×g for 15 min.
Cells were incubated with the anti-AIF polyclonal antibody for 2 h. Cells were washed twice and incubated with the secondary antibody conjugated with FITC for 1 h.

caspase-3 = test: Caspase-3 activity assay (Ac-DEVD-pNA) in cytosol extracts; type: cell-based, human; details: 50 μM pan-caspase inhibitor, 10 μM BMS-345541
human melanoma grafts = test: Tumor growth in tumor-bearing mice treated with temozolomide; type: in vivo; details: daily 60 mg/kg orally

block of BMS-345541 induction of caspase-3 activity (caspase-3) [%] | Structure (SMILES) | cells protected from nuclear apoptosis induced by 10 μM BMS-345541 (SK-Mel-5 cells [1]) [%] | influence on AIF translocation to nucleus and nuclear condensation (SK-Mel-5 cells [2]) | tumor growth inhibition (human melanoma grafts) [%]
87.2 | COC(=O)C[C@H](NC(=O)[C@H](C)NC(=O)[C@@H](NC(=O)OCc1ccccc1)C(C)C)C(=O)CF [Z-VAD-fmk, reference compound] (Cbz-Val-Ala-Asp(OMe)-CH2F) | 11 | failed to influence | 
 | Cn1nnc2c(C(N)=O)ncn2c1=O [temozolomide] |  |  | 81
